Several values for one entry are separate records, joined by “and”; a condition that tells them apart may be missing. Identical values can stand only once.

The assay concerns P. falciparum 3D7 growth, pLDH absorbance. Briefly: P. falciparum 3D7 growth inhibition, dose response, strain 3D7 (AID 2305).

Consider `CC1CCc2c(C(=O)N3CCc4ccccc4C3)csc2C1` (stereo not drawn), for which the IC50 amounted to 780 nM.
The figure for `FC(F)(F)c1ccc(NC(=S)NC2CCC(CN3CCC(c4c[nH]c5ccccc45)CC3)CC2)cc1` (stereo not drawn) is 730 nM and 390 nM; for `COc1cc2nc(C)nc(Nc3ccc(Oc4ccccc4)cc3)c2cc1OC` it is 720 nM.
The figure for `CS(=O)(=O)Nc1ccc2c(C3CCN(CCC4CCN(C(=O)/C=C/c5ccc(Cl)c(Cl)c5)CC4)CC3)c[nH]c2c1` is 600 nM.
`CS(=O)(=O)CCNCc1nc(-c2ccc3c(Nc4ccc(Cl)cc4F)ccnc3c2)cs1` showed a 50% inhibitory concentration (IC50) of 1080 nM.
Molecule `O=C(NC1CCN(Cc2ccccc2)CC1)c1ccc(CNC2CCN(Cc3ccccc3)CC2)cc1` showed an IC50 of 870 nM.
Molecule `COc1cc(NC(=O)N2CCOC(CCN3CCC4(CCc5ccccc54)CC3)(c3ccc(Cl)c(Cl)c3)C2)cc(OC)c1` (stereo not drawn) displayed an IC50 of 820 nM.
The result for `COc1ccc(C(=O)N2CCc3cc4nccc(N5CCN6CCC[C@H]6C5)c4cc32)cc1` reads 950 nM; that for `Cc1cc(F)ccc1Nc1nc(N(C)c2ccccc2)c2cccc(O)c2n1`, 960 nM; that for `CCOC(=O)N1CCN(CCCCCNc2cc(C)nc(/N=C(\N)Nc3ccc(Cl)cc3)n2)CC1`, 150 nM.
In the case of `CCCn1c(Sc2ccc(C#N)c([N+](=O)[O-])c2)nnc1-c1ccc(N(C)C)cc1`, the IC50 is 130 nM.
Consider `c1ccc(CN2CCC(NCc3ccc(-c4cccc(CNC5CCCC5)c4)cc3)CC2)cc1`, for which the IC50 was found to be 340 nM.
The figure for `CC(=O)Oc1c(C2C=CCCC2)c(OC(C)=O)c2ccccc2c1OC(C)=O` (stereo not drawn) is 600 nM; for `Cc1nn(CC(O)Cn2c3ccc(Br)cc3c3cc(Br)ccc32)c(C)c1Br` (stereo not drawn) it is 710 nM.
The molecule `Cc1cccc2[nH]c(-c3ccc(-c4ccc(CN5CCCCC5)cc4)s3)nc12` showed an IC50 of 520 nM.
In turn, `CN1N=C2c3ccccc3CCC2C1c1ccc(C#N)cc1` (stereo not drawn) showed an IC50 of 660 nM.
Turning to `Cc1cc(N2CCCN(C)CC2)nc(Nc2ccc(Cl)cc2)n1`, the IC50 was determined as 800 nM.
`COc1cc(NC(=O)c2cccs2)c(OC)cc1NC(=O)Nc1cccc(Cl)c1` yielded an IC50 of 1000 nM.
For the molecule `CN(C(=O)c1ccccc1)[C@@H]1c2cc(C#N)ccc2OC(C)(C)[C@H]1O`, the IC50 worked out at 650 nM.
The result for `CC(C)C(NC(=O)c1c(F)cccc1F)C(=O)Nc1ccc(Cc2nc3ccccc3s2)cc1` (stereo not drawn) reads 450 nM; that for `COC(=O)c1ccc(NC(=O)Nc2cccc(CCNCc3ccccc3)c2)cc1`, 870 nM.
As to `Cc1cc(C)nc(-n2[nH]c(C)c(Cc3ccc(C(C)(C)C)cc3)c2=O)n1`, the IC50 was found to be 1010 nM.
With `COCCNCc1ccc(-c2cccc(CNc3ccc(OC)cc3)c2)cc1`, the IC50 was determined as 1040 nM.
Molecule `CC(C)(C)n1nnnc1C(c1cccnc1)N(Cc1ccccc1)Cc1ccc(Cl)cc1` (stereo not drawn) came in with an IC50 of 740 nM.
Turning to `CCc1cc(OC)c(C(=O)NC2CCN(C[C@H](O)c3ccnc4ccc(OC)cc34)CC2)cc1Br`, the IC50 turned out to be 810 nM.
For the molecule `FC(F)(F)c1cccc(Nc2nc(-n3ccnc3)nc(-n3ccnc3)n2)c1`, the IC50 turned out to be 720 nM.
On to `CC(C)(C)c1ccc(S(=O)(=O)Nc2cc(Cl)ccc2Cn2ccc(N3CCNCC3)nc2=O)cc1`, for which the IC50 came out at 830 nM.
The result for `CCN(CC)C(=NC(N)=NCCCCCCN=C(N)N=C(Nc1ccc(Cl)cc1)N(CC)CC)Nc1ccc(Cl)cc1` reads 930 nM.
Consider `Oc1cccc2c1CC(NCc1ccccc1)CC2` (stereo not drawn), for which the IC50 was determined as 890 nM.
The figure for `CC(=O)Oc1c(Cl)c(C)nc(C)c1-c1ccc(Oc2ccc(Cl)cc2)cc1` is 30 nM.
The result for `NC(=O)c1cnc2ccc(-c3cncs3)cc2c1Nc1ccc(F)c(Cl)c1` reads 180 nM; that for `NCC1(c2nc(-c3ccc(Cl)c(O)c3)c(-c3ccncc3)[nH]2)CCCCC1`, 740 nM.
Consider `Cc1cc(-c2ccc3c(c2)CCN(CCC2CCC(NC(=O)/C=C/c4cccc(Cl)c4)CC2)CC3)on1` (stereo not drawn), for which the IC50 stood at 590 nM.
Consider `CC(C)c1cccc(OCC2CCN(c3ccc(C(=O)Nc4ccccc4)cn3)CC2)c1`, for which the IC50 came to 700 nM.
Regarding `Clc1ccc(Cl)c2[nH]c(CNCCCNc3nc4ccccc4[nH]3)cc12`, the IC50 turned out to be 160 nM.
`CN1CC=C(c2csc3ccc(NC(=O)Nc4ccc(-c5ccncc5)c5ccccc45)cc23)CC1` showed an IC50 of 800 nM.
The molecule `C=CCN1C(=O)c2[nH]nc(-c3cc(C)c(C)cc3O)c2C1c1cccc(Br)c1` (stereo not drawn) had an IC50 of 1160 nM.
The molecule `CN1CCN(c2ncnc3ccc(NC(=O)Nc4ccc(Cl)c(Cl)c4)cc23)CC1` displayed a half-maximal inhibitory concentration (IC50) of 260 nM.
The molecule `CCc1nc(N)nc(N)c1-c1ccc(C(C)C)cc1` gave an IC50 of 830 nM.
As for `COc1cc2nc(N3CCC(CNC(=O)c4cccc5cccnc45)CC3)nc(N)c2cc1OC`, the IC50 worked out at 1700 nM.
`Cc1ccc2sc(N(CCCn3ccnc3)C(=O)c3ccco3)nc2c1C`: the IC50 turned out to be 970 nM.
The result for `COc1cccc2c(NN=Cc3ccccc3[N+](=O)[O-])cc(C)nc12` reads 420 nM; that for `CC(=O)N(Cc1cccc(-c2ccc(CNCCc3ccccc3)cc2)c1)C1CCN(Cc2ccccc2)CC1`, 690 nM.
As for `CC(C)CC1c2[nH]c3ccccc3c2CCN1C(=O)CCc1ccccc1` (stereo not drawn), the IC50 came to 970 nM.
`CN(c1ccc2c(c1)nc(Nc1cc(C(C)(C)C)on1)n2C)c1ccnc(Nc2ccc(CS(C)(=O)=O)cc2)n1` registered an IC50 of 900 nM.
`Cc1cccc2[nH]c(-c3ccc(-c4cccc(CNCCN(C)C)c4)cc3)nc12`: the IC50 was found to be 680 nM.
The result for `Nc1c2c(nc3ccc(NC(=O)CCCc4ccccc4)cc13)CCCC2` reads 430 nM; that for `COc1ccc(C(=O)Nc2ccc(Nc3nc(C)cc(N(C)C)n3)cc2)c(OC)c1`, 870 nM; that for `CCCNc1ccc2nccc(CCN3CCC(NCc4ccc5c(c4)NC(=O)CS5)CC3)c2n1`, 580 nM.
In the case of `Cc1c(Cn2ncc(N3CCC(N)CC3)c(Cl)c2=O)cccc1NC(=O)Nc1ccc(-c2ccccc2)cc1`, the half-maximal inhibitory concentration (IC50) was 700 nM.
`C[C@H](Cc1ccc(C[C@@H](C)NC[C@H](O)c2cccc(Cl)c2)cc1)NC[C@H](O)COc1ccccc1`: the IC50 came out at 1170 nM.
In the case of `CNCCNCc1ccc(-c2ccc(-c3nc4c(C)cccc4[nH]3)s2)cc1`, the IC50 was determined as 730 nM.
Turning to `O=C(NCC1CCN(Cc2cccc(C(F)(F)F)c2)C1)c1cc(-c2cccc(Cl)c2)cs1` (stereo not drawn), the IC50 came out at 800 nM.
The result for `COc1ccc2nccc([C@@H](O)CN3CCC(NCc4cc5cc(C)ccc5s4)CC3)c2c1` reads 640 nM.
The molecule `CCc1cn2c3c(cc(C(=O)N[C@@H](Cc4ccccc4)[C@H](O)CNC4CC4)cc13)N(CC)S(=O)(=O)CC2` showed an IC50 of 110 nM.
`Cc1cc(Cl)ccc1OC(C)C(=O)N1CCc2ccccc21` (stereo not drawn) showed an IC50 of 670 nM.
In the case of `O=C(Nc1ccc2c(c1)CCC2)c1ccc(N2CCN(c3ccncc3)CC2)cc1`, the IC50 worked out at 1130 nM.
For the molecule `O=C(C=Cc1cccc(Cl)c1Cl)NC1CCC(CN2CCC(c3c[nH]c4ccccc34)CC2)CC1` (stereo not drawn), the IC50 was 680 nM and 1140 nM.
The molecule `CCNc1cc(C(=O)N[C@@H](Cc2ccccc2)[C@H](O)CNCCc2cc(OC)cc(OC)c2)cc(N2CCCCS2(=O)=O)c1` came in with an IC50 of 1140 nM.
As to `CCn1c(-c2nonc2N)nc2c(-c3cccc(NC(=O)Nc4ccc5c(c4)CCC5)c3)ncc(OCCCN)c21`, the IC50 came out at 780 nM.
In turn, `COc1cc2c(cc1C(F)(F)F)N(C(=O)Nc1cc(-c3ccncc3)cc(-c3cccnc3)c1)CC2` displayed an IC50 of 620 nM.
The figure for `NC(N)=NC(=O)Nc1ccc(Cl)c(C(F)(F)F)c1` is 590 nM; for `COCCNCc1ccc(-c2ccc3c(Nc4ccc(Cl)cc4F)ccnc3c2)o1` it is 210 nM.

These data come from PubChem BioAssay AID2305 (GlaxoSmithKline (GSK), 2010).
